Experimental data as given in US5624894A, “Brain-enhanced delivery of neuroactive peptides by sequential metabolism” (University of Florida, priority 1995, dated 1997).
Several values for one entry are separate records, joined by “and”; a condition that tells them apart may be missing. Identical values can stand only once. Square brackets hold non-standard residues; d marks the D form. Peptide text beside a SMILES is read from it. * marks the point of attachment. O(cholesteryl) = CC(C)CCC[C@@H](C)[C@H]1CC[C@H]2[C@@H]3CC=C4C[C@@H](O*)CC[C@]4(C)[C@H]3CC[C@]12C; Nicotinoyl(1-Me-1,4-dihydro) = CN1C=CCC(C(=O)*)=C1

Legend:
Swiss Webster mice = assay: Methohexital (barbiturate)-induced sleeping time in mice after i.v. injection; type: in vivo; settings: mice; for methohexital induced sleeping time, individual animals / methohexital induced sleeping time, mean: methohexital 90 mg/kg i.p. 10 min later
From the text: Two representative chemical delivery systems (CDS's) of the invention for the TRH analog [Leu^2 ]-TRH, i.e., compound (8) of Scheme I/EXAMPLE 8, which has an alanine spacer, and compound (12) of Scheme II/Example 12, which has an alanine-alanine spacer, were studied for their effects on the barbiturate-induced sleeping time in mice. TRH is known to antagonize the reduction in cholinergic activity induced by barbiturates. Thus, the activational effects of the CDS's for TRH analogs on cholinergic neurons can be measured by quantitating the antagonism of pentobarbital-induced sleeping and barbiturate-induced reduction in cholinergic neuronal activity.
Swiss Webster mice weighing 30±2 g were used. The compounds were dissolved in a vehicle consisting of DMSO, ethanol and 50% (w/w) 2-hydroxypropyl-β-cyclodextrin at a ratio of 1:2:1 (15 mg/ml). CDS's at a dose of 30 mg/kg were injected in the animals through the tail vein. Vehicle only and an equimolar dose of TRH and [Leu^2 ]-TRH, 10 mg/kg, were also administered to compare CNS activities. Ten minutes after i.v. injection of the compound, each animal received an intraperitoneal injection of sodium methohexital solution (45 mg/ml) at a dose of 90 mg/kg. The sleeping time was recorded as the time elapsed from the onset of loss of the […] until the reflex was regained. Each compound and the vehicle control were tested on 5-11 animals. The statistical analysis was performed using the Student's t test.

Sprague-Dawley rats = assay: Rat tail flick test (analgesia) after i.v. administration; type: in vivo; design: Area under the latency change vs. time curve, AUC0-240 min: unit not given here; settings: for Tail flick latency period / Maximum tail flick latency: cutoff 60 s; for Tail flick latency period / Maximum tail flick latency / Area under the latency change vs. time curve, AUC0-240 min: mean ± S.E.; for Number of Animals with maximum tail flick latency >60 seconds: cutoff latency 60 seconds; for analgesic effect in tail flick test (in words): i.v., compared to control
Protocol: Sprague-Dawley rats weighing 200-250 g were used. Drugs were dissolved in the vehicle consisting of DMSO, ethanol and 50% (w/w) 2-hydroxypropyl-β-cyclodextrin at a ratio of 1:2:1. A-CDS at a dose of 5 or 10 mg/2 ml/kg was injected in the animals through the tail vein. Vehicle only, or an equimolar dose (5 mg/kg) of DADLE (equimolar to 10 mg/kg of A-CDS) was also administered to compare the pharmacological activities. Tail flick latency, an index of spinal cord mediated analgesia, was measured before (control) and at 5 minutes, 15 minutes, 30 minutes, 1 hour, 2 hours, 3 hours, 4 hours, 5 hours and 6 hours after drug administration. The instrument used was a model 33 tail flick analgesia meter (lite, Inc., Landing, N.J.) set with the beam dial at 90 and the sensitivity at 8. Time between presentation of a focused beam of light and the reflexive removal of the tail from the stimulus was defined as the tail flick latency period, and the tail flick latency difference between each time point and control was defined as the change in tail flick latency. In the absence of response, a cut-off period of 1 minute was used. Each drug at each dose was tested in ten animals. Results are presented in Tables 5-8 below and in FIGS. 3-5.
Another representative chemical delivery system (AA-CDS) of the invention for the enkephalin analog DADLE, namely compound (69) of EXAMPLE 69, which has an alanine-alanine spacer, was studied in the same rat tail flick test procedure described above to determine its analgesic effects compared to DADLE itself. AA-CDS was tested at a dose of 10 mg/2 ml/kg, which is equimolar to 5 mg/kg of DADLE, and compared with vehicle and 5mg/kg of DADLE exactly as described above. Each dose was tested in ten animals.

[1] = Table 1 experiment, CDS 30 mg/kg i.v.
[2] = 5 mg/kg i.v., 0 min (prior to drug administration)
[3] = 10 mg/kg i.v., 0 min (prior to drug administration)
[4] = Table 2 experiment, 10 mg/kg i.v.

CC(C)CCC[C@@H](C)[C@H]1CC[C@H]2[C@@H]3CC=C4C[C@@H](OC(=O)CNC(=O)[C@@H]5CCCN5C(=O)[C@H](CC(C)C)NC(=O)[C@H](CCC(N)=O)NC(=O)[C@H](C)NC(=O)C5=CN(C)C=CC5)CC[C@]4(C)[C@H]3CC[C@]12C [Compound (8), 1.4-Dihydrotrigonellyl-Ala-Gln-Leu-Pro-Gly-Cholesteryl Ester] ({Nicotinoyl(1-Me-1,4-dihydro)}-AQLPG-{O(cholesteryl)})
methohexital induced sleeping time, individual animals (Swiss Webster mice; [1]): 18.23 min and 15.33 min and 11.90 min and 17.27 min and 46.07 min and 18.58 min and 15.73 min and 34.43 min and 16.15 min
methohexital induced sleeping time, mean (Swiss Webster mice; [1]): 21.52 min
No. of Death (Swiss Webster mice; [1]): 2

CC(C)CCC[C@@H](C)[C@H]1CC[C@H]2[C@@H]3CC=C4C[C@@H](OC(=O)CNC(=O)[C@@H]5CCCN5C(=O)[C@H](CC(C)C)NC(=O)[C@H](CCC(N)=O)NC(=O)[C@H](C)NC(=O)[C@H](C)NC(=O)C5=CN(C)C=CC5)CC[C@]4(C)[C@H]3CC[C@]12C [Compound (12), 1,4-Dihydrotrigonellyl-Ala-Ala-Gln-Leu-Pro-Gly-Cholesteryl Ester] ({Nicotinoyl(1-Me-1,4-dihydro)}-AAQLPG-{O(cholesteryl)})
methohexital induced sleeping time, individual animals (Swiss Webster mice; [1]): 12.08 min and 17.18 min and 27.05 min and 10.07 min and 16.40 min and 19.00 min and 8.13 min and 15.38 min and 17.93 min and 9.45 min
methohexital induced sleeping time, mean (Swiss Webster mice; [1]): 15.27 min
No. of Death (Swiss Webster mice; [1]): 1

CC(C)CCC[C@@H](C)[C@H]1CC[C@H]2[C@@H]3CC=C4C[C@@H](OC(=O)[C@@H](CC(C)C)NC(=O)[C@H](Cc5ccccc5)NC(=O)CNC(=O)[C@@H](C)NC(=O)[C@H](Cc5ccc(O)cc5)NC(=O)[C@H](C)NC(=O)C5=CN(C)C=CC5)CC[C@]4(C)[C@H]3CC[C@]12C [Compound (64), 1,4-Dihydrotrigonellyl-Ala-Tyr-D-Ala-Gly-Phe-D-Leu-Cholesteryl Ester] ({Nicotinoyl(1-Me-1,4-dihydro)}-AY[dA]GF[dL]-{O(cholesteryl)})
Number of Animals with maximum tail flick latency 20-40 seconds (Sprague-Dawley rats; 5 mg/kg i.v.): 2
Number of Animals with maximum tail flick latency 40-60 seconds (Sprague-Dawley rats; 5 mg/kg i.v.): 2
Number of Animals with maximum tail flick latency <20 seconds (Sprague-Dawley rats; 5 mg/kg i.v.): 4
Tail flick latency period (Sprague-Dawley rats; [2]): 7.24 ± 0.58 s
Tail flick latency period (Sprague-Dawley rats; 5 mg/kg i.v., 5 min): 25.95 ± 5.64 s
Tail flick latency period (Sprague-Dawley rats; 5 mg/kg i.v., 15 min): 20.63 ± 5.40 s
Tail flick latency period (Sprague-Dawley rats; 5 mg/kg i.v., 30 min): 14.22 ± 2.22 s
Tail flick latency period (Sprague-Dawley rats; 5 mg/kg i.v., 60 min): 13.00 ± 1.97 s
Tail flick latency period (Sprague-Dawley rats; 5 mg/kg i.v., 120 min): 18.37 ± 5.10 s
Tail flick latency period (Sprague-Dawley rats; 5 mg/kg i.v., 180 min): 16.63 ± 2.02 s
Tail flick latency period (Sprague-Dawley rats; 5 mg/kg i.v., 240 min): 20.28 ± 5.58 s
Tail flick latency period (Sprague-Dawley rats; 5 mg/kg i.v., 300 min): 17.84 ± 3.42 s
Maximum tail flick latency (Sprague-Dawley rats; 5 mg/kg i.v.): 33.05 ± 5.99 s
Number of Animals with maximum tail flick latency >60 seconds (Sprague-Dawley rats; 5 mg/kg i.v.): 2
Area under the latency change vs. time curve, AUC0-240 min (Sprague-Dawley rats; 5 mg/kg i.v.): 2528.70 ± 663.78
Number of Animals with maximum tail flick latency 20-40 seconds (Sprague-Dawley rats; 10 mg/kg i.v.): 1
Number of Animals with maximum tail flick latency 40-60 seconds (Sprague-Dawley rats; 10 mg/kg i.v.): 3
Number of Animals with maximum tail flick latency <20 seconds (Sprague-Dawley rats; 10 mg/kg i.v.): 0
Tail flick latency period (Sprague-Dawley rats; [3]): 9.21 ± 0.53 s
Tail flick latency period (Sprague-Dawley rats; 10 mg/kg i.v., 5 min): 49.67 ± 4.67 s
Tail flick latency period (Sprague-Dawley rats; 10 mg/kg i.v., 15 min): 40.71 ± 7.00 s
Tail flick latency period (Sprague-Dawley rats; 10 mg/kg i.v., 30 min): 36.03 ± 6.34 s
Tail flick latency period (Sprague-Dawley rats; 10 mg/kg i.v., 60 min): 32.59 ± 6.63 s
Tail flick latency period (Sprague-Dawley rats; 10 mg/kg i.v., 120 min): 26.28 ± 4.56 s
Tail flick latency period (Sprague-Dawley rats; 10 mg/kg i.v., 180 min): 28.50 ± 4.40 s
Tail flick latency period (Sprague-Dawley rats; 10 mg/kg i.v., 240 min): 28.30 ± 4.68 s
Tail flick latency period (Sprague-Dawley rats; 10 mg/kg i.v., 300 min): 30.15 ± 3.81 s
Maximum tail flick latency (Sprague-Dawley rats; 10 mg/kg i.v.): 51.94 ± 3.83 s
Number of Animals with maximum tail flick latency >60 seconds (Sprague-Dawley rats; 10 mg/kg i.v.): 6
Area under the latency change vs. time curve, AUC0-240 min (Sprague-Dawley rats; 10 mg/kg i.v.): 4897.80 ± 1011.63
analgesic effect in tail flick test (in words) (Sprague-Dawley rats): significant and prolonged increase in the latency of the tail-flick response

CC(C)CCC[C@@H](C)[C@H]1CC[C@H]2[C@@H]3CC=C4C[C@@H](OC(=O)[C@@H](CC(C)C)NC(=O)[C@H](Cc5ccccc5)NC(=O)CNC(=O)[C@@H](C)NC(=O)[C@H](Cc5ccc(O)cc5)NC(=O)[C@H](C)NC(=O)[C@H](C)NC(=O)C5=CN(C)C=CC5)CC[C@]4(C)[C@H]3CC[C@]12C [Compound (69), 1,4Dihydrotrigonellyl-Ala-Ala-Tyr-D-Ala-Gly-Phe-D-Leu-Cholesteryl Ester] ({Nicotinoyl(1-Me-1,4-dihydro)}-AAY[dA]GF[dL]-{O(cholesteryl)})
Number of Animals with maximum tail flick latency 20-40 seconds (Sprague-Dawley rats; 10 mg/kg i.v.): 2
Number of Animals with maximum tail flick latency 40-60 seconds (Sprague-Dawley rats; 10 mg/kg i.v.): 2
Number of Animals with maximum tail flick latency <20 seconds (Sprague-Dawley rats; 10 mg/kg i.v.): 3
Tail flick latency period (Sprague-Dawley rats; [3]): 8.47 ± 0.76 s
Tail flick latency period (Sprague-Dawley rats; 10 mg/kg i.v., 5 min): 29.78 ± 5.99 s
Tail flick latency period (Sprague-Dawley rats; 10 mg/kg i.v., 15 min): 20.24 ± 5.07 s
Tail flick latency period (Sprague-Dawley rats; 10 mg/kg i.v., 30 min): 20.41 ± 5.42 s
Tail flick latency period (Sprague-Dawley rats; 10 mg/kg i.v., 60 min): 13.77 ± 2.01 s
Tail flick latency period (Sprague-Dawley rats; 10 mg/kg i.v., 120 min): 11.81 ± 0.99 s
Tail flick latency period (Sprague-Dawley rats; 10 mg/kg i.v., 180 min): 15.94 ± 1.89 s
Tail flick latency period (Sprague-Dawley rats; 10 mg/kg i.v., 240 min): 13.99 ± 0.95 s
Tail flick latency period (Sprague-Dawley rats; 10 mg/kg i.v., 300 min): 18.43 ± 4.52 s
Maximum tail flick latency (Sprague-Dawley rats; 10 mg/kg i.v.): 34.27 ± 6.20 s
Number of Animals with maximum tail flick latency >60 seconds (Sprague-Dawley rats; 10 mg/kg i.v.): 2
Area under the latency change vs. time curve, AUC0-240 min (Sprague-Dawley rats; 10 mg/kg i.v.): 1639.67 ± 266.61
analgesic effect in tail flick test (in words) (Sprague-Dawley rats): produced a significant analgesic effect

CC(C)C[C@@H](NC(=O)[C@H](Cc1ccccc1)NC(=O)CNC(=O)[C@@H](C)NC(=O)[C@@H](N)Cc1ccc(O)cc1)C(=O)O [DADLE, H-Tyr-D-Ala-Gly-Phe-D-Leu-OH, reference compound]
Number of Animals with maximum tail flick latency 20-40 seconds (Sprague-Dawley rats; 5 mg/kg i.v.): 3
Number of Animals with maximum tail flick latency 40-60 seconds (Sprague-Dawley rats; 5 mg/kg i.v.): 0
Number of Animals with maximum tail flick latency <20 seconds (Sprague-Dawley rats; 5 mg/kg i.v.): 7
Tail flick latency period (Sprague-Dawley rats; [2]): 7.97 ± 0.60 s
Tail flick latency period (Sprague-Dawley rats; 5 mg/kg i.v., 5 min): 12.15 ± 1.53 s
Tail flick latency period (Sprague-Dawley rats; 5 mg/kg i.v., 15 min): 12.67 ± 1.18 s
Tail flick latency period (Sprague-Dawley rats; 5 mg/kg i.v., 30 min): 12.66 ± 1.70 s
Tail flick latency period (Sprague-Dawley rats; 5 mg/kg i.v., 60 min): 15.75 ± 3.03 s
Tail flick latency period (Sprague-Dawley rats; 5 mg/kg i.v., 120 min): 10.11 ± 1.29 s
Tail flick latency period (Sprague-Dawley rats; 5 mg/kg i.v., 180 min): 10.94 ± 1.65 s
Tail flick latency period (Sprague-Dawley rats; 5 mg/kg i.v., 240 min): 10.64 ± 1.68 s
Tail flick latency period (Sprague-Dawley rats; 5 mg/kg i.v., 300 min): 10.02 ± 1.08 s
Maximum tail flick latency (Sprague-Dawley rats; 5 mg/kg i.v.): 19.68 ± 2.42 s
Number of Animals with maximum tail flick latency >60 seconds (Sprague-Dawley rats; 5 mg/kg i.v.): 0
Area under the latency change vs. time curve, AUC0-240 min (Sprague-Dawley rats; 5 mg/kg i.v.): 775.58 ± 273.20

NC(=O)[C@@H]1CCCN1C(=O)[C@H](Cc1cnc[nH]1)NC(=O)[C@@H]1CCC(=O)N1 [TRH, PyroGlu-His-Pro-NH2]
methohexital induced sleeping time, individual animals (Swiss Webster mice; [4]): 20.47 min and 23.90 min and 15.00 min and 12.90 min and 11.17 min and 11.77 min and 40.82 min
methohexital induced sleeping time, mean (Swiss Webster mice; [4]): 19.43 min
No. of Death (Swiss Webster mice; [4]): 2
behavior / symptoms of animals after i.v. administration (Swiss Webster mice; i.v.): tremor, tail-elevation and piloerection
